Reference: patent US20060030585A1, “Tricyclic delta-opioid modulators” (priority 2004, published 2006)
Read-outs that look alike come from different tables or passages of the source.

How the values were obtained:
delta opioid receptor = delta opioid receptor (Rattus norvegicus, UniProt P33533); experiment: Rat brain delta opioid receptor binding assay ([3H]DPDPE); conditions: Rat delta opioid receptor binding constant, rat forebrain membranes, ~4 nM [3H]DPDPE
Method: Rat Brain Delta Opioid Receptor Binding Assay
Procedure: Male, Sprague Dawley rats (150-250 g, VAF, Charles River, Kingston, N.Y.) were killed by CO2, and their brains removed and placed immediately in ice cold Tris HCl buffer (50 mM, pH 7.4). The forebrains were separated from the remainder of the brain by a coronal transection, beginning dorsally at the colliculi and passing ventrally through the midbrain-pontine junction. After dissection, the forebrains were homogenized in Tris buffer in a Teflon®-glass homogenizer. The homogenate was diluted to a concentration of 1 g of forebrain tissue per 80 mL Tris and centrifuged at 39,000×g for 10 min. The pellet was resuspended in the same volume of Tris buffer containing 5 mM MgCl2 with several brief pulses from a Polytron homogenizer. This particulate preparation was used for the delta opioid binding assays. Following incubation with the delta selective peptide ligand ˜4 nM [^3H]DPDPE at 25° C. for 2.5 h in a 96-well plate with total volume of 1 mL, the plate contents were filtered through Wallac filtermat B sheets on a Tomtec 96-well harvester. The filters were rinsed three times with 2 mL of 10 mM HEPES (pH 7.4), and dried in a 650 W microwave oven for 1.75 min twice. To each sample area 2×50 μL of Betaplate Scint scintillation fluid (LKB) was added and the radioactivity quantified on a LKB (Wallac) 1205 BetaPlate liquid scintillation counter.
(§1) Analysis: The data from the scintillation counter were used to calculate either the % inhibition compared to control binding (when only a single concentration of test compound was evaluated) or a Ki value (when a range of concentrations was tested). Percent inhibition was calculated as: [(total dpm-test compound dpm)/(total dpm-nonspecific dpm)]*100. Kd and Ki values were calculated using GraphPad PRISM data analysis program.

mu opioid receptor = mu opioid receptor (Rattus norvegicus, UniProt P33535); experiment: Rat brain mu opioid receptor binding assay ([3H]DAMGO); conditions: Rat mu opioid receptor binding constant, rat forebrain membranes, ~0.8 nM [3H]DAMGO
mu opioid receptor, sequence (P33535 whole entry): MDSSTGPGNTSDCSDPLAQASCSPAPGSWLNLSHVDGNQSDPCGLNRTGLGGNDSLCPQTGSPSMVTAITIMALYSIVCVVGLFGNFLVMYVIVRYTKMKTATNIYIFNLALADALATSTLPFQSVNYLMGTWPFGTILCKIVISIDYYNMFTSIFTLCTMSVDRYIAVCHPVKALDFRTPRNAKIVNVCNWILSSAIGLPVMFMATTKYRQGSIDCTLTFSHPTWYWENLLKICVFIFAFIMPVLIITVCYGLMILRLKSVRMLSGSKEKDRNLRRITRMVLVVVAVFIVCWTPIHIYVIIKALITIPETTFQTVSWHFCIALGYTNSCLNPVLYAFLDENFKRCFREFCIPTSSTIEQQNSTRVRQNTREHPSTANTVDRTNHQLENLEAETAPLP
Method: Rat Brain Mu Opioid Receptor Binding Assay
Procedure: Male, Sprague Dawley rats (150-250 g, VAF, Charles River, Kingston, N.Y.) were killed by CO2, and their brains removed and placed immediately in ice cold Tris HCl buffer (50 mM, pH 7.4). The forebrains were separated from the remainder of the brain by a coronal transection, beginning dorsally at the colliculi and passing ventrally through the midbrain-pontine junction. After dissection, the forebrains were homogenized in Tris buffer in a Teflon®-glass homogenizer. The homogenate was diluted to a concentration of 1 g of forebrain tissue per 80 mL Tris and centrifuged at 39,000×g for 10 min. The pellet was resuspended in the same volume of Tris buffer containing 5 mM MgCl2 with several brief pulses from a Polytron homogenizer. This particulate preparation was used for the delta opioid binding assays.
as §1, with “concentrations” for “concentrations was”

delta opioid receptor, sequence (P33533 whole entry): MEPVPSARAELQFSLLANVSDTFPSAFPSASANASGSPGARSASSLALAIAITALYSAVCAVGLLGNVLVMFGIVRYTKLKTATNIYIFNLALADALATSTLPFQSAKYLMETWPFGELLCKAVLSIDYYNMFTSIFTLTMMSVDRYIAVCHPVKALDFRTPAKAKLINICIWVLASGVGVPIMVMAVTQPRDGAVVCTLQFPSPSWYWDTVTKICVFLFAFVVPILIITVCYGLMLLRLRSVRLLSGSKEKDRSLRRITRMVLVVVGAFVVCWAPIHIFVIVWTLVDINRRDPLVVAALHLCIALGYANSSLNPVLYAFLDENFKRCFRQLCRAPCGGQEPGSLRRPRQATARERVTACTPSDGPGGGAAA

O=S1NC(c2ccc3c(c2)Oc2ccccc2C3=C2CC3CCC(C2)N3)=NO1 (stereo not shown) [Cpd 10, 3-[3-(2-Oxo-2,3-dihydro-2|4-[1,2,3,5]oxathiadiazol-4-yl)-xanthen-9-ylidene]-8-aza-bicyclo[3.2.1]octane]
Ki (delta opioid receptor; DOR Ki): 15.1 nM | Ki (mu opioid receptor; MOR Ki): 819 nM

N#Cc1ccc2c(c1)Sc1ccccc1C2=C1CC2CCC(C1)N2 [Cpd 85, 9-(8-Aza-bicyclo[3.2.1]oct-3-ylidene)-9H-thioxanthene-3-carbonitrile]
Ki (delta opioid receptor; DOR Ki): 629 nM | Ki (mu opioid receptor; MOR Ki): 2310 nM

c1cncc(-c2ccc3c(c2)Sc2ccccc2C3=C2CC3CCC(C2)N3Cc2ncc[nH]2)c1 [Cpd 115]
Ki (delta opioid receptor; DOR Ki): 91 nM | Ki (mu opioid receptor; MOR Ki): 60 nM

CC(=O)Nc1ccccc1-c1ccc2c(c1)Sc1ccccc1C2=C1CC2CCC(C1)N2Cc1ccoc1 [Cpd 120]
Ki (delta opioid receptor; DOR Ki): 54 nM | Ki (mu opioid receptor; read-out: MOR Ki): 183 nM

CC(=O)Nc1ccc(-c2ccc3c(c2)Oc2ccccc2C3=C2CC3CCC(C2)N3)cc1 [Cpd 30]
Ki (delta opioid receptor; DOR Ki): 139 nM | Ki (mu opioid receptor; MOR Ki): 2740 nM

c1ccc(Sc2ccc3c(c2)Sc2ccccc2C3=C2CC3CCC(C2)N3)cc1 [Cpd 83, 3-(3-Phenylsulfanyl-thioxanthen-9-ylidene)-8-aza-bicyclo[3.2.1]octane]
Ki (delta opioid receptor; DOR Ki): 8510 nM | Ki (mu opioid receptor; MOR Ki): > 10000 nM

COc1cccc2c1Oc1cc(-c3ccsc3)ccc1C2=C1CC2CCC(C1)N2 [Cpd 106]
Ki (delta opioid receptor; read-out: DOR Ki): 281 nM | Ki (mu opioid receptor; read-out: MOR Ki): 2740 nM

O=C(c1ccc2c(c1)Oc1ccccc1C2=C1CC2CCC(C1)N2)N1CCC(O)C1 (single isomer, unassigned) [Cpd 127]
Ki (delta opioid receptor; DOR Ki): 191 nM | Ki (mu opioid receptor; MOR Ki): 907 nM

c1ccc2c(c1)Oc1cc(-c3ccsc3)ccc1C2=C1CC2CCC(C1)N2 [Cpd 55]
Ki (delta opioid receptor; DOR Ki): 4720 nM | Ki (mu opioid receptor; MOR Ki): 9280 nM

O=C(NCC(F)(F)F)c1ccc2c(c1)Oc1ccccc1C2=C1CC2CCC(C1)N2 [Cpd 64]
Ki (delta opioid receptor; DOR Ki): 52 nM | Ki (mu opioid receptor; MOR Ki): 411 nM

CS(=O)(=O)Nc1cccc(-c2ccc3c(c2)Oc2ccccc2C3=C2CC3CCC(C2)N3)c1 [Cpd 63]
Ki (delta opioid receptor; DOR Ki): 161 nM | Ki (mu opioid receptor; MOR Ki): 5120 nM

CN1C2CCC1CC(=C1c3ccccc3Sc3cc(-c4cccnc4)ccc31)C2 [Cpd 114]
Ki (delta opioid receptor; DOR Ki): 108 nM | Ki (mu opioid receptor; MOR Ki): 109 nM

O=C(NCCO)c1ccc2c(c1)Oc1ccccc1C2=C1CC2CCC(C1)N2 [Cpd 123]
Ki (delta opioid receptor; read-out: DOR Ki): 106 nM | Ki (mu opioid receptor; read-out: MOR Ki): 1020 nM

COc1cccc2c1Oc1cc(-c3ccncc3)ccc1C2=C1CC2CCC(C1)N2 [Cpd 107]
Ki (delta opioid receptor; read-out: DOR Ki): 106 nM | Ki (mu opioid receptor; read-out: MOR Ki): 597 nM

Cc1nnc(-c2ccc3c(c2)Oc2ccccc2C3=C2CC3CCC(C2)N3)[nH]1 [Cpd 35, 3-[3-(5-Methyl-4H-[1,2,4]triazol-3-yl)-xanthen-9-ylidene]-8-aza-bicyclo[3.2.1]octane]
Ki (delta opioid receptor; DOR Ki): 266 nM | Ki (mu opioid receptor; MOR Ki): 673 nM

O=C(c1ccc2c(c1)Oc1ccccc1C2=C1CC2CCC(C1)N2)N(CC(F)(F)F)CC(F)(F)F [Cpd 48]
Ki (delta opioid receptor; read-out: DOR Ki): 939 nM | Ki (mu opioid receptor; read-out: MOR Ki): 2060 nM

O=c1[nH]c(-c2ccc3c(c2)Oc2ccccc2C3=C2CC3CCC(C2)N3)ns1 [Cpd 95]
Ki (delta opioid receptor; read-out: DOR Ki): 159 nM | Ki (mu opioid receptor; read-out: MOR Ki): 4930 nM

CC(C)C[C@H](CO)NC(=O)c1ccc2c(c1)Oc1ccccc1C2=C1CC2CCC(C1)N2 [Cpd 67]
Ki (delta opioid receptor; DOR Ki): 360 nM | Ki (mu opioid receptor; MOR Ki): 1570 nM

COC(=O)c1ccc2c(c1)Sc1ccccc1C2=C1CC2CCC(C1)N2 [Cpd 76]
Ki (delta opioid receptor; read-out: DOR Ki): 370 nM | Ki (mu opioid receptor; read-out: MOR Ki): 4740 nM

CS(=O)(=O)c1ccc(-c2ccc3c(c2)Oc2ccccc2C3=C2CC3CCC(C2)N3)cc1 [Cpd 53]
Ki (delta opioid receptor; DOR Ki): 3140 nM | Ki (mu opioid receptor; MOR Ki): 3290 nM

COc1ccccc1-c1ccc2c(c1)Oc1ccccc1C2=C1CC2CCC(C1)N2 [Cpd 44]
Ki (delta opioid receptor; DOR Ki): 659 nM | Ki (mu opioid receptor; MOR Ki): 7580 nM

COc1cccc(-c2ccc3c(c2)Oc2ccccc2C3=C2CC3CCC(C2)N3)c1 [Cpd 57]
Ki (delta opioid receptor; DOR Ki): 6960 nM | Ki (mu opioid receptor; MOR Ki): 19700 nM

COc1cccc2c1Oc1cc(-c3noc(=S)[nH]3)ccc1C2=C1CC2CCC(C1)N2 [Cpd 133, 3-[9-(8-Aza-bicyclo[3.2.1]oct-3-ylidene)-5-methoxy-9H-xanthen-3-yl]-4H-[1,2,4]oxadiazole-5-thione]
Ki (delta opioid receptor; DOR Ki): 2.37 nM | Ki (mu opioid receptor; MOR Ki): 371 nM

Nc1ccc(-c2ccc3c(c2)Oc2ccccc2C3=C2CC3CCC(C2)N3)cc1 [Cpd 42]
Ki (delta opioid receptor; DOR Ki): 490 nM | Ki (mu opioid receptor; MOR Ki): 1310 nM

Cn1ccc(-c2ccc3c(c2)Oc2ccccc2C3=C2CC3CCC(C2)N3)n1 [Cpd 111]
Ki (delta opioid receptor; DOR Ki): 220 nM | Ki (mu opioid receptor; MOR Ki): 2640 nM

CC(=O)Nc1ccccc1-c1ccc2c(c1)Sc1ccccc1C2=C1CC2CCC(C1)N2Cc1ncc[nH]1 [Cpd 119]
Ki (delta opioid receptor; read-out: DOR Ki): 142 nM | Ki (mu opioid receptor; read-out: MOR Ki): 349 nM

COC[C@H](Cc1ccccc1)NC(=O)c1ccc2c(c1)Oc1ccccc1C2=C1CC2CCC(C1)N2 [Cpd 31]
Ki (delta opioid receptor; read-out: DOR Ki): 142 nM | Ki (mu opioid receptor; read-out: MOR Ki): 660 nM

CN(C(=O)c1ccc2c(c1)Oc1ccccc1C2=C1CC2CCC(C1)N2)c1ccccc1 [Cpd 14]
Ki (delta opioid receptor; DOR Ki): 27.1 nM | Ki (mu opioid receptor; MOR Ki): 1160 nM

N=C(c1ccc2c(c1)Oc1ccccc1C2=C1CC2CCC(C1)N2)N1CCOCC1 [Cpd 50]
Ki (delta opioid receptor; DOR Ki): 1760 nM | Ki (mu opioid receptor; MOR Ki): 14900 nM

COC(=O)c1ccc2c(c1)Oc1cc(C(=O)OC)ccc1C2=C1CC2CCC(C1)N2 [Cpd 78, 9-(8-Aza-bicyclo[3.2.1]oct-3-ylidene)-9H-xanthene-3,6-dicarboxylic acid dimethyl ester]
Ki (delta opioid receptor; DOR Ki): 1150 nM | Ki (mu opioid receptor; MOR Ki): 7000 nM

CC(C)(CO)NC(=O)c1ccc2c(c1)Oc1ccccc1C2=C1CC2CCC(C1)N2 [Cpd 97]
Ki (delta opioid receptor; read-out: DOR Ki): 266 nM | Ki (mu opioid receptor; read-out: MOR Ki): 1900 nM

NC(=O)c1ccccc1-c1ccc2c(c1)Oc1ccccc1C2=C1CC2CCC(C1)N2 [Cpd 18]
Ki (delta opioid receptor; DOR Ki): 38 nM | Ki (mu opioid receptor; MOR Ki): 1540 nM

c1ccc(CN2C3CCC2CC(=C2c4ccccc4Sc4cc(-c5cccnc5)ccc42)C3)nc1 [Cpd 117]
Ki (delta opioid receptor; DOR Ki): 95 nM | Ki (mu opioid receptor; MOR Ki): 97 nM

c1cncc(-c2ccc3c(c2)Sc2ccccc2C3=C2CC3CCC(C2)N3)c1 [Cpd 112, 3-(3-Pyridin-3-yl-thioxanthen-9-ylidene)-8-aza-bicyclo[3.2.1]octane]
Ki (delta opioid receptor; DOR Ki): 481 nM | Ki (mu opioid receptor; MOR Ki): 1010 nM

COC(=O)c1ccc2c(c1)Oc1ccccc1C2=C1CC2CCC(C1)N2 [Cpd 73]
Ki (delta opioid receptor; read-out: DOR Ki): 1010 nM | Ki (mu opioid receptor; read-out: MOR Ki): 6340 nM

CN(C(=O)c1ccc2c(c1)Oc1ccccc1C2=C1CC2CCC(C1)N2)c1ccc(F)cc1 [Cpd 66]
Ki (delta opioid receptor; DOR Ki): 93 nM | Ki (mu opioid receptor; MOR Ki): 935 nM

O=C(O)c1ccc2c(c1)Oc1ccccc1C2=C1CC2CCC(C1)N2 [Cpd 72]
Ki (delta opioid receptor; read-out: DOR Ki): 216 nM | Ki (mu opioid receptor; read-out: MOR Ki): 1960 nM

Cc1nc(-c2ccc3c(c2)Oc2ccccc2C3=C2CC3CCC(C2)N3)no1 [Cpd 36, 3-[3-(5-Methyl-[1,2,4]oxadiazol-3-yl)-xanthen-9-ylidene]-8-aza-bicyclo[3.2.1]octane]
Ki (delta opioid receptor; DOR Ki): 373 nM | Ki (mu opioid receptor; MOR Ki): 3550 nM

Cn1nnnc1-c1ccc2c(c1)Oc1ccccc1C2=C1CC2CCC(C1)N2 [Cpd 21, 3-[3-(1-Methyl-1 H-tetrazol-5-yl)-xanthen-9-ylidene]-8-aza-bicyclo[3.2.1]octane]
Ki (delta opioid receptor; DOR Ki): 54 nM | Ki (mu opioid receptor; MOR Ki): 1740 nM

c1cncc(-c2ccc3c(c2)Sc2ccccc2C3=C2CC3CCC(C2)N3Cc2ccoc2)c1 [Cpd 116, 8-Furan-3-ylmethyl-3-(3-pyridin-3-yl-thioxanthen-9-ylidene)-8-aza-bicyclo[3.2.1]octane]
Ki (delta opioid receptor; DOR Ki): 93 nM | Ki (mu opioid receptor; read-out: MOR Ki): 113 nM

COc1ccc(-c2ccc3c(c2)Oc2ccccc2C3=C2CC3CCC(C2)N3)cn1 [Cpd 32]
Ki (delta opioid receptor; DOR Ki): 160 nM

CCN(CC)C(=N)c1ccc2c(c1)Oc1ccccc1C2=C1CC2CCC(C1)N2 [Cpd 9, 9-(8-Aza-bicyclo[3.2.1]oct-3-ylidene)-N,N-diethyl-9H-xanthene-3-carboxamidine]
Ki (delta opioid receptor; DOR Ki): 14 nM | Ki (mu opioid receptor; MOR Ki): 3540 nM

O=C(NC1CCC(C(F)(F)F)CC1)c1ccc2c(c1)Oc1ccccc1C2=C1CC2CCC(C1)N2 (stereo not shown) [Cpd 62]
Ki (delta opioid receptor; read-out: DOR Ki): 309 nM | Ki (mu opioid receptor; read-out: MOR Ki): 7400 nM

CN(C)CCN(C)C(=O)c1ccc2c(c1)Oc1ccccc1C2=C1CC2CCC(C1)N2 [Cpd 56]
Ki (delta opioid receptor; DOR Ki): 4930 nM | Ki (mu opioid receptor; MOR Ki): 28500 nM

O=C(NCCc1ccccc1)c1ccc2c(c1)Oc1ccccc1C2=C1CC2CCC(C1)N2 [Cpd 19]
Ki (delta opioid receptor; DOR Ki): 45 nM | Ki (mu opioid receptor; MOR Ki): 438 nM

Fc1ccc(-c2ccc3c(c2)Oc2ccccc2C3=C2CC3CCC(C2)N3)cc1 [Cpd 54]
Ki (delta opioid receptor; DOR Ki): 4470 nM

Cc1cccc(-c2ccc3c(c2)Oc2ccccc2C3=C2CC3CCC(C2)N3)c1 [Cpd 46]
Ki (delta opioid receptor; DOR Ki): 723 nM
